From patent US8575156B2, “Cyclic inhibitors of 11β-hydroxysteroid dehydrogenase 1” (Vitae Pharmaceuticals, Inc., priority 2007, dated 2013)
Read-outs that look alike come from different tables or passages of the source.

Target: 11β-HSD1 (Homo sapiens, UniProt P28845)
Assay: biochemical
Conditions: for IC50: IC50 Range, Biological Test Example 1, microsomes from CHO cells overexpressing human 11β-HSD1
[1] = read-out: Average % inhibition at 100 nM
[2] = read-out: Average % inhibition at 100 nM, Biological Test Example 1, 100 nM compound
[3] = read-out: Average % inhibition at 111.1 nM, Biological Test Example 1, 111.1 nM compound
[4] = read-out: Average % inhibition at 100 nM, Biological Test Example 1, 100 nM

11β-HSD1, sequence (P28845 whole entry): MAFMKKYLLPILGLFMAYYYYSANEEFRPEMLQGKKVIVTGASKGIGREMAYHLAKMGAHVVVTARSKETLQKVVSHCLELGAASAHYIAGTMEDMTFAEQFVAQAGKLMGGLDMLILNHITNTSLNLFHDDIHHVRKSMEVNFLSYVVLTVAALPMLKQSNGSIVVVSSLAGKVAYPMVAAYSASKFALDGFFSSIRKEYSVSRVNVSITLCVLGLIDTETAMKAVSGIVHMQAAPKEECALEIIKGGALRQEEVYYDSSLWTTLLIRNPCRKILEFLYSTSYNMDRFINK

Row | SMILES | IC50 [nM] | inhibition at 0.1111 µM [3] [%] | inhibition at 0.1 µM [4] [%] | other results
1 | C[C@@H](c1ccc(-c2ccc(F)cc2F)cc1)N1CC[C@](CCS(C)(=O)=O)(c2ccc(F)cc2)OC1=O [EXAMPLE 229, (S)-3-((S)-1-(2′,4′-difluorobiphenyl-4-yl)ethyl)-6-(4-fluorophenyl)-6-(2-(methylsulfonyl)ethyl)-1,3-oxazinan-2-one] | < 100 | – | – | inhibition at 0.1 µM [1]: 81.6%
2 | C[C@@H](c1ccc(Cl)cc1)N1CC[C@](CCC(N)=O)(c2ccccc2)OC1=O [EXAMPLE 287, 3-((R)-3-((S)-1-(4-chlorophenyl)ethyl)-2-oxo-6-phenyl-1,3-oxazinan-6-yl)propanamide] | < 100 | – | – | inhibition at 0.1 µM [2]: 89.8%
3 | CC1(c2ccccc2)CCN(c2cccc(-c3cccc(Cl)c3)c2)C(=O)O1 (stereo not drawn) [EXAMPLE 24, 3-(3′-chlorobiphenyl-3-yl)-6-methyl-6-phenyl-1,3-oxazinan-2-one] | < 100 | 86 | – | inhibition at 0.1 µM [2]: 93.4%
4 | CC(O)C[C@]1(c2ccccc2)CCN([C@@H](C)c2ccc(-c3ccc(F)cc3)cc2)C(=O)O1 (single isomer, unassigned) [EXAMPLE 224 Isomer 1] | < 100 | – | – | inhibition at 0.1 µM [2]: 100%
5 | C[C@@H](c1ccc(Cl)cc1)N1CC[C@](CC(C)(C)O)(c2ccccc2)OC1=O [EXAMPLE 402, (S)-3-((S)-1-(4-chlorophenyl)ethyl)-6-(2-hydroxy-2-methylpropyl)-6-phenyl-1,3-oxazinan-2-one] | < 100 | – | 96.8 | –
6 | C[C@@H](c1ccc(-c2ccc(F)cc2)cc1)N1CC[C@](CC(C)(C)C(N)=O)(c2ccccc2)OC1=O [EXAMPLE 568, 3-((R)-3-((S)-1-(4′-fluorobiphenyl-4-yl)ethyl)-2-oxo-6-phenyl-1,3-oxazinan-6-yl)-2,2-dimethylpropanamide] | < 100 | – | 97.7 | –
7 | COc1ccc([C@H](C)N2CC[C@](CCC(C)(C)O)(c3ccccc3)OC2=O)cc1 [EXAMPLE 428, (R)-6-(3-hydroxy-3-methylbutyl)-3-((S)-1-(4-methoxyphenyl)ethyl)-6-phenyl-1,3-oxazinan-2-one] | < 100 | – | 82 | –
8 | Cc1cc(-c2ccc([C@H](C)N3CC[C@](CC(C)(C)O)(c4ccc(F)cc4)OC3=O)cc2)ccn1 [EXAMPLE 449, (S)-6-(4-fluorophenyl)-6-(2-hydroxy-2-methylpropyl)-3-((S)-1-(4-(2-methylpyridin-4-yl)phenyl)ethyl)-1,3-oxazinan-2-one] | – | – | – | inhibition at 0.1111 µM (read-out: Average % inhibition at 111.1 nM, Biological Test Example 1, 111.1 nM): 99.4%
9 | COC(=O)c1cccc(-c2cccc(N3CCC(C)(c4ccccc4)OC3=O)c2)c1 (stereo not drawn) [EXAMPLE 38, methyl 3′-(6-methyl-2-oxo-6-phenyl-1,3-oxazinan-3-yl)biphenyl-3-carboxylate] | 100 to 1000 | 17.8 | – | –
10 | C[C@@H](c1ccc(F)cc1)N1CC[C@](CCO)(c2ccccc2)OC1=O [EXAMPLE 412, (S)-3-((S)-1-(4-fluorophenyl)ethyl)-6-(2-hydroxyethyl)-6-phenyl-1,3-oxazinan-2-one] | < 100 | – | 94.7 | –
11 | C=CC[C@]1(c2ccc(F)cc2)CCN([C@H](C)c2ccc(Cl)c(F)c2)C(=O)O1 (single isomer, unassigned) [EXAMPLE 497 Isomer 4] | < 100 | – | – | –
12 | COc1ccc([C@H](C)N2CC[C@](C)(c3ccc(CO)cc3)OC2=O)cc1 (single isomer, unassigned) [EXAMPLE 429 Isomer 1] | < 100 | – | 77.9 | –
13 | C[C@@H](c1ccc(-c2ccc(F)cc2F)cc1)N1CC[C@](CCC(N)=O)(c2ccccc2)OC1=O [EXAMPLE 250, 3-((R)-3-((S)-1-(2′,4′-difluorobiphenyl-4-yl)ethyl)-2-oxo-6-phenyl-1,3-oxazinan-6-yl)propanamide] | < 100 | – | – | inhibition at 0.1 µM [2]: 97.1%
14 | O=C1OC(CCO)(c2ccccc2F)CCN1c1cccc(-c2ccc(F)cc2)n1 (stereo not drawn) [EXAMPLE 104, 6-(2-fluorophenyl)-3-(6-(4-fluorophenyl)pyridin-2-yl)-6-(2-hydroxyethyl)-1,3-oxazinan-2-one] | < 100 | 85.7 | – | –
15 | COc1ccc([C@H](C)N2CC[C@](CCCNS(C)(=O)=O)(c3ccc(F)cc3)OC2=O)cc1 [EXAMPLE 314, N-(3-((R)-6-(4-fluorophenyl)-3-((S)-1-(4-methoxyphenyl)ethyl)-2-oxo-1,3-oxazinan-6-yl)propyl)methanesulfonamide] | < 100 | – | 96.5 | –
16 | CC1(c2ccccc2)CCN(c2cccc(-c3ccc(S(C)(=O)=O)cc3)c2)C(=O)O1 (stereo not drawn) [EXAMPLE 11, 3-(4′-Methanesulfonyl-biphenyl-3-yl)-6-methyl-6-phenyl-[1,3]oxazinan-2-one] | 100 to 1000 | 28.4 | – | –
17 | C[C@@H](C1CCCCC1)N1CC[C@](CCC(N)=O)(c2ccc(F)cc2)OC1=O [EXAMPLE 317, 3-((R)-3-((S)-1-cyclohexylethyl)-6-(4-fluorophenyl)-2-oxo-1,3-oxazinan-6-yl)propanamide] | < 100 | – | 87.5 | –

Row | SMILES | IC50 [nM] | inhibition at 0.1111 µM [3] [%] | inhibition at 0.1 µM [4] [%] | other results
18 | O=C1OC(CCO)(c2ccccc2F)CCN1c1ccc(F)c(-c2ccc(F)cc2)c1 (stereo not drawn) [EXAMPLE 67, 3-(4′,6-difluorobiphenyl-3-yl)-6-(2-fluorophenyl)-6-(2-hydroxyethyl)-1,3-oxazinan-2-one] | < 100 | 96.6 | – | inhibition at 0.1 µM [2]: 93.1%
19 | C=CC[C@@]1(c2ccc(F)cc2)CCN([C@@H](C)c2ccc(Cl)c(F)c2)C(=O)O1 (single isomer, unassigned) [EXAMPLE 497 Isomer 1] | < 100 | – | – | –
20 | CC(O)C[C@]1(c2ccc(F)cc2)CCN([C@@H](C)c2ccc(Cl)cc2)C(=O)O1 (single isomer, unassigned) [EXAMPLE 203 Isomer 1] | < 100 | – | – | inhibition at 0.1 µM [2]: 88.6%
21 | C=CC[C@]1(c2ccc(F)cc2)CCN([C@@H](C)c2ccc(N3CCOCC3)cc2)C(=O)O1 [EXAMPLE 217, (R)-6-allyl-6-(4-fluorophenyl)-3-((S)-1-(4-morpholinophenyl)ethyl)-1,3-oxazinan-2-one] | < 100 | – | – | inhibition at 0.1 µM [2]: 88%
22 | C[C@@H](c1ccc(Br)cc1)N1CC[C@](C)(c2ccc(F)cc2)OC1=O (single isomer, unassigned) [EXAMPLE 518 Isomer 2] | < 100 | – | 98 | –
23 | O=C(OCc1ccccc1)N1CCC[C@H](N2CC[C@](CCCO)(c3ccc(F)cc3)OC2=O)C1 [EXAMPLE 340, (S)-benzyl 3-((R)-6-(4-fluorophenyl)-6-(3-hydroxypropyl)-2-oxo-1,3-oxazinan-3-yl)piperidine-1-carboxylate] | < 100 | – | – | inhibition at 0.1 µM [1]: 75.9%
24 | C[C@@H](c1ccc(-c2ccc(F)cc2)cc1)N1CC[C@@](CCCO)(c2cccs2)OC1=O [EXAMPLE 166, (S)-3-((S)-1-(4′-fluorobiphenyl-4-yl)ethyl)-6-(3-hydroxypropyl)-6-(thiophen-2-yl)-1,3-oxazinan-2-one] | < 100 | 81.8 | – | –
25 | C[C@@H](c1ccc(Br)cc1)N1CC[C@](CCNCCF)(c2ccc(F)cc2)OC1=O [EXAMPLE 375, (R)-3-((S)-1-(4-bromophenyl)ethyl)-6-(2-(2-fluoroethylamino)ethyl)-6-(4-fluorophenyl)-1,3-oxazinan-2-one] | < 100 | – | 70.9 | –
26 | CC(=O)N(C)CCC[C@]1(c2ccccc2)CCN([C@@H](C)c2ccc(Br)cc2)C(=O)O1 [EXAMPLE 506, N-(3-((R)-3-((S)-1-(4-bromophenyl)ethyl)-2-oxo-6-phenyl-1,3-oxazinan-6-yl)propyl)-N-methylacetamide] | < 100 | – | 97.7 | –
27 | C[C@@H](c1ccc(Br)cc1)N1CC[C@](CCCN(C)S(C)(=O)=O)(c2ccccc2)OC1=O [EXAMPLE 514, N-(3-((R)-3-((S)-1-(4-bromophenyl)ethyl)-2-oxo-6-phenyl-1,3-oxazinan-6-yl)propyl)-N-methylmethanesulfonamide] | < 100 | – | 93.1 | –
28 | CC1(c2ccccc2)CCN(c2nccc(-c3cccc(Cl)c3)n2)C(=O)O1 (stereo not drawn) [EXAMPLE 58, 3-(4-(3-chlorophenyl)pyrimidin-2-yl)-6-methyl-6-phenyl-1,3-oxazinan-2-one] | 100 to 1000 | 34.8 | – | –
29 | CC(=O)NCc1cccc(-c2cccc(N3CCC(C)(c4ccccc4)OC3=O)c2)c1 (stereo not drawn) [EXAMPLE 41, N-((3′-(6-methyl-2-oxo-6-phenyl-1,3-oxazinan-3-yl)biphenyl-3-yl)methyl)acetamide] | 100 to 1000 | 19.9 | – | –
30 | O=C1OC(CCO)(c2ccccc2)CCN1c1cccc(-c2ccc(F)cc2F)n1 (stereo not drawn) [EXAMPLE 107, 3-(6-(2,4-difluorophenyl)pyridin-2-yl)-6-(2-hydroxyethyl)-6-phenyl-1,3-oxazinan-2-one] | < 100 | 97 | – | inhibition at 0.1 µM [2]: 90.9%
31 | CC1(c2ccccn2)CCN(c2cccc(-c3ccc(F)cc3F)c2)C(=O)O1 (stereo not drawn) [EXAMPLE 80, 3-(2′,4′-difluorobiphenyl-3-yl)-6-methyl-6-(pyridin-2-yl)-1,3-oxazinan-2-one] | < 100 | – | – | inhibition at 0.1111 µM (read-out: Average % inhibition at 111.1 nM): 77.8%
32 | NC(=O)c1ccc(-c2ccccc2CN2CCC(CCCO)(c3ccc(F)cc3)OC2=O)cc1 (stereo not drawn) [EXAMPLE 386, 2′((6-(4-fluorophenyl)-6-(3-hydroxypropyl)-2-oxo-1,3-oxazinan-3-yl)methyl)biphenyl-4-carboxamide] | < 100 | – | 52.5 | –
33 | CC(O)C[C@@]1(c2cccs2)CCN([C@@H](C)c2ccc(-c3ccc(F)cc3)cc2)C(=O)O1 (single isomer, unassigned) [EXAMPLE 167 Isomer 1] | < 100 | 79 | – | inhibition at 0.1 µM [2]: 73.7%
34 | C[C@@H](c1cccc(OCC(C)(C)O)c1)N1CCC(C)(c2ccccc2)OC1=O (mixture of isomers) [EXAMPLE 93] | 100 to 1000 | 45.3 | – | –
